Experimental data as given in PubChem BioAssay AID330 (DTP/NCI, 2004).
Several values for one entry are separate records, joined by “and”; a condition that tells them apart may be missing. Identical values can stand only once. Inconclusive results and toxic doses are left out.

System: P388 leukemia ip, CD2F1 mice, survival T/C
Test: NCI In Vivo Anticancer Drug Screen. Data for tumor model P388 Leukemia (intraperitoneal) in CD2F1 (CDF1) mice
Conditions: endpoint: median survival time, higher = longer survival
How it was run: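 Mice carrying the transplanted tumor received test compound or vehicle. Survival was recorded in each group, and the value is the treated-group measurement divided by that of the vehicle-treated control group.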

[1] = dose: 12.5 mg/kg/injection, schedule: Q01DX005 (ip), vehicle: Klucel (hydroxypropylcellulose) (HPC)
[2] = dose: 100.0 mg/kg/injection, schedule: Q04DX003 (ip), vehicle: Klucel (hydroxypropylcellulose) (HPC)
[3] = dose: 25.0 mg/kg/injection, schedule: Q01DX009 (ip), vehicle: saline with Tween-80
[4] = dose: 50.0 mg/kg/injection, schedule: Q01DX009 (ip), vehicle: saline with Tween-80
[5] = dose: 50.0 mg/kg/injection, schedule: Q01DX009 (ip), vehicle: saline
[6] = dose: 100.0 mg/kg/injection, schedule: Q01DX009 (ip), vehicle: saline
[7] = dose: 200.0 mg/kg/injection, schedule: Q01DX009 (ip), vehicle: saline
[8] = dose: 200.0 mg/kg/injection, schedule: Q01DX009 (ip), vehicle: saline with Tween-80
[9] = dose: 100.0 mg/kg/injection, schedule: Q01DX009 (ip), vehicle: saline with Tween-80

Cc1ccc(S(=O)(=O)OC2CCC3(C)C(CCC4C3CCC3(C)C(C(C)CCCC(C)C)CCC43)C2)cc1 (stereo not drawn)
T/C (dose: 3.0 mg/kg/injection, schedule: Q01DX005 (ip), vehicle: Klucel (hydroxypropylcellulose) (HPC)): 107 % of control
T/C (dose: 6.0 mg/kg/injection, schedule: Q01DX005 (ip), vehicle: Klucel (hydroxypropylcellulose) (HPC)): 117 % of control
T/C [1]: 100 % of control

Cc1c(C)c2c(c3c1OC(C)(C)CC3)CCC(C)(C)O2
T/C (dose: 50.0 mg/kg/injection, schedule: Q01DX009 (ip), vehicle: suspension in saline): 88 % of control
T/C (dose: 100.0 mg/kg/injection, schedule: Q01DX009 (ip), vehicle: suspension in saline): 101 % of control
T/C (dose: 200.0 mg/kg/injection, schedule: Q01DX009 (ip), vehicle: suspension in saline): 100 % of control

O=C(c1ccccc1)C1C(c2ccccc2)C2(CCCCC2=O)C(c2ccccc2)CC1(O)c1ccccc1 (stereo not drawn)
T/C (dose: 3.12 mg/kg/injection, schedule: Q01DX001 (ip), vehicle: Klucel (hydroxypropylcellulose) (HPC)): 98 % of control
T/C (dose: 6.25 mg/kg/injection, schedule: Q01DX001 (ip), vehicle: Klucel (hydroxypropylcellulose) (HPC)): 86 % of control
T/C (dose: 12.5 mg/kg/injection, schedule: Q01DX001 (ip), vehicle: Klucel (hydroxypropylcellulose) (HPC)): 86 % of control
T/C (dose: 25.0 mg/kg/injection, schedule: Q01DX001 (ip), vehicle: Klucel (hydroxypropylcellulose) (HPC)): 86 % of control

O=[Se](O)O
T/C (dose: 0.78 mg/kg/injection, schedule: Q01DX005 (ip), vehicle: water): 106 % of control and 110 % of control
T/C (dose: 1.56 mg/kg/injection, schedule: Q01DX005 (ip), vehicle: water): 114 % of control and 119 % of control
T/C (dose: 3.12 mg/kg/injection, schedule: Q01DX005 (ip), vehicle: water): 114 % of control
T/C (dose: 6.25 mg/kg/injection, schedule: Q01DX005 (ip), vehicle: water): 117 % of control

NC(=S)N/N=C/c1cn(-c2ccc(N)cc2)cn1
T/C (dose: 25.0 mg/kg/injection, schedule: Q04DX003 (ip), vehicle: Klucel (hydroxypropylcellulose) (HPC)): 100 % of control
T/C (dose: 50.0 mg/kg/injection, schedule: Q04DX003 (ip), vehicle: Klucel (hydroxypropylcellulose) (HPC)): 91 % of control
T/C [2]: 100 % of control

CC(C)NCC(O)COc1cccc2[nH]c3ccccc3c12 (stereo not drawn)
T/C [3]: 99 % of control
T/C [4]: 96 % of control

CC12CCC(O)CC1CCC1C2CCC2(C)C(c3ccc(=O)oc3)CC3OC312 (stereo not drawn)
T/C (dose: 0.31 mg/kg/injection, schedule: Q01DX009 (ip), vehicle: saline with Tween-80): 108 % of control
T/C (dose: 0.62 mg/kg/injection, schedule: Q01DX009 (ip), vehicle: saline with Tween-80): 100 % of control
T/C (dose: 1.25 mg/kg/injection, schedule: Q01DX009 (ip), vehicle: saline with Tween-80): 104 % of control
T/C (dose: 2.5 mg/kg/injection, schedule: Q01DX009 (ip), vehicle: saline with Tween-80): 115 % of control
T/C (dose: 5.0 mg/kg/injection, schedule: Q01DX009 (ip), vehicle: saline with Tween-80): 100 % of control and 87 % of control
T/C (dose: 10.0 mg/kg/injection, schedule: Q01DX009 (ip), vehicle: saline with Tween-80): 87 % of control
T/C (dose: 20.0 mg/kg/injection, schedule: Q01DX009 (ip), vehicle: saline with Tween-80): 88 % of control

CN(C)CCC(=O)c1cccc(O)c1
T/C (dose: 25.0 mg/kg/injection, schedule: Q01DX009 (ip), vehicle: saline): 107 % of control
T/C [5]: 98 % of control and 105 % of control
T/C [6]: 98 % of control and 109 % of control
T/C [7]: 97 % of control

CCOC(CN)(OCC)c1ccncc1
T/C (dose: 50.0 mg/kg/injection, schedule: Q01DX005 (ip), vehicle: saline): 102 % of control
T/C (dose: 100.0 mg/kg/injection, schedule: Q01DX005 (ip), vehicle: saline): 101 % of control
T/C (dose: 200.0 mg/kg/injection, schedule: Q01DX005 (ip), vehicle: saline): 101 % of control

C[N+](C)(C)CCOS(C)(=O)=O
T/C (dose: 1.56 mg/kg/injection, schedule: Q01DX009 (ip), vehicle: Klucel (hydroxypropylcellulose) (HPC)): 90 % of control and 93 % of control
T/C (dose: 1.56 mg/kg/injection, schedule: Q01DX009 (ip), vehicle: saline): 101 % of control
T/C (dose: 3.13 mg/kg/injection, schedule: Q01DX009 (ip), vehicle: Klucel (hydroxypropylcellulose) (HPC)): 99 % of control
T/C (dose: 3.13 mg/kg/injection, schedule: Q01DX009 (ip), vehicle: saline): 111 % of control and 95 % of control
T/C (dose: 6.25 mg/kg/injection, schedule: Q01DX009 (ip), vehicle: Klucel (hydroxypropylcellulose) (HPC)): 89 % of control (2×) and 94 % of control
T/C (dose: 6.25 mg/kg/injection, schedule: Q01DX009 (ip), vehicle: saline): 90 % of control
T/C (dose: 12.5 mg/kg/injection, schedule: Q01DX009 (ip), vehicle: saline): 92 % of control

COc1ccc(OC)c(/C=C/C2=C(C)C(=O)CC(c3cc(OC)ccc3OC)C2C)c1 (stereo not drawn)
T/C [2]: 90 % of control
T/C (dose: 200.0 mg/kg/injection, schedule: Q04DX003 (ip), vehicle: Klucel (hydroxypropylcellulose) (HPC)): 88 % of control

O=[N+]([O-])c1ccc(C(c2ccccc2)c2ccccc2)cc1
T/C [8]: 90 % of control

Nc1nc(N)nc(Cl)n1
T/C (dose: 12.5 mg/kg/injection, schedule: Q01DX009 (ip), vehicle: Klucel (hydroxypropylcellulose) (HPC)): 100 % of control and 91 % of control
T/C (dose: 25.0 mg/kg/injection, schedule: Q01DX009 (ip), vehicle: Klucel (hydroxypropylcellulose) (HPC)): 101 % of control and 104 % of control
T/C (dose: 50.0 mg/kg/injection, schedule: Q01DX009 (ip), vehicle: Klucel (hydroxypropylcellulose) (HPC)): 123 % of control and 91 % of control
T/C (dose: 100.0 mg/kg/injection, schedule: Q01DX009 (ip), vehicle: Klucel (hydroxypropylcellulose) (HPC)): 104 % of control and 96 % of control

CCCCCCC[CH2][Sn]([CH2]CCCCCCC)([S]CC(=O)OCCCC)[S]CC(=O)OCCCC
T/C [5]: 99 % of control
T/C [6]: 92 % of control and 95 % of control
T/C [7]: 92 % of control and 94 % of control

O=C1NN=C(C(O)c2ccccc2)C1(O)c1ccccc1 (stereo not drawn)
T/C (dose: 60.0 mg/kg/injection, schedule: Q01DX005 (ip), vehicle: saline with Tween-80): 91 % of control
T/C (dose: 100.0 mg/kg/injection, schedule: Q04DX002 (ip), vehicle: distilled water + alcohol): 103 % of control
T/C (dose: 120.0 mg/kg/injection, schedule: Q01DX005 (ip), vehicle: saline with Tween-80): 98 % of control
T/C (dose: 200.0 mg/kg/injection, schedule: Q04DX002 (ip), vehicle: distilled water + alcohol): 98 % of control
T/C (dose: 240.0 mg/kg/injection, schedule: Q01DX005 (ip), vehicle: saline with Tween-80): 93 % of control
T/C (dose: 400.0 mg/kg/injection, schedule: Q04DX002 (ip), vehicle: distilled water + alcohol): 94 % of control

CC(C)(C)OC(=O)C(C(=O)OC(C)(C)C)=C1C(=O)OCC1(C)C
T/C (dose: 100.0 mg/kg/injection, schedule: Q04DX003 (ip), vehicle: saline): 95 % of control
T/C (dose: 200.0 mg/kg/injection, schedule: Q04DX003 (ip), vehicle: saline): 103 % of control
T/C (dose: 400.0 mg/kg/injection, schedule: Q04DX003 (ip), vehicle: saline): 98 % of control

O=C(O)CCC(=O)OCN1C(=O)C2C3C=CC(C2C1=O)C1C2C(=O)N(COC(=O)CCC(=O)O)C(=O)C2C31 (stereo not drawn)
T/C (dose: 25.0 mg/kg/injection, schedule: Q01DX009 (ip), vehicle: water): 103 % of control and 107 % of control (2×)
T/C (dose: 50.0 mg/kg/injection, schedule: Q01DX009 (ip), vehicle: water): 115 % of control and 116 % of control and 122 % of control
T/C (dose: 100.0 mg/kg/injection, schedule: Q01DX009 (ip), vehicle: water): 165 % of control and 178 % of control

CN(C)c1ccc2c(SCC(=O)OCC(=O)C3(O)CCC4C5CCC6=CC(=O)C=CC6(C)C5C(O)CC43C)c3ccc(N(C)C)cc3nc2c1 (stereo not drawn)
T/C [1]: 98 % of control and 97 % of control
T/C (dose: 25.0 mg/kg/injection, schedule: Q01DX005 (ip), vehicle: Klucel (hydroxypropylcellulose) (HPC)): 111 % of control and 93 % of control
T/C (dose: 50.0 mg/kg/injection, schedule: Q01DX005 (ip), vehicle: Klucel (hydroxypropylcellulose) (HPC)): 123 % of control and 96 % of control
T/C (dose: 100.0 mg/kg/injection, schedule: Q01DX005 (ip), vehicle: Klucel (hydroxypropylcellulose) (HPC)): 118 % of control and 122 % of control

Cc1cc(Cl)ccc1S(=O)(=O)Cl
T/C [4]: 104 % of control
T/C [9]: 103 % of control

COc1ccc(-c2coc3cc(OC4OC(COC5OC(CO)C(O)C(O)C5O)C(O)C(O)C4O)cc(O)c3c2=O)cc1 (stereo not drawn)
T/C [3]: 101 % of control
T/C [4]: 98 % of control
T/C [9]: 93 % of control

CONC(=O)Cc1cccc(OC)c1
T/C [3]: 104 % of control
T/C [4]: 114 % of control
T/C [9]: 98 % of control

OCCNCCNc1ccnc2c1ccc1ccccc12
T/C (dose: 50.0 mg/kg/injection, schedule: Q01DX005 (ip), vehicle: saline with Tween-80): 105 % of control

CNC(=O)OCc1cc(C)cc(C)c1-c1ccco1
T/C [4]: 101 % of control
T/C [9]: 98 % of control
T/C [8]: 95 % of control
